Experimental data taken from patent US9000027B2, “Chk1 suppresses a caspase-2 apoptotic response to DNA damage that bypasses p53, bcl-2 and caspase-3” (Dana-Farber Cancer Institute, Inc., priority 2008, dated 2015).
Entries after “also recorded” stand apart in the source; their conditions may differ.

Tests used:
p53^+/+ embryos = experiment: Drug toxicity: AO reactivity and development of inhibitor-treated, non-irradiated p53+/+ embryos; assay type: in vivo, zebrafish; settings: 0 Gy
Text: Chk1 inhibitors hold considerable promise in cancer therapy, as they are expected to synergize with genotoxic agents to kill tumor cells lacking functional p53, without affecting normal cells (Kawabe, 2004; Zhou and Bartek, 2004). […] Gö6976 has not been tested in vivo in a vertebrate model system. We therefore evaluated it as well as specific Chk2 and ATM inhibitors in the zebrafish system. Drug toxicity was monitored by scoring the AO reactivity of inhibitor-treated, but non-irradiated, p53^+/+ embryos (left column in FIG. 8A). Unless otherwise indicated, the inhibitors were applied at 18 hpf (that is, immediately before IR) for a total of 6 hours.
Immediately before IR, 18-hpf embryos were dechorionated and transferred to fresh egg water containing 1% DMSO, with or without the following inhibitors at indicated final concentrations: KU55933 (10 μM; Sigma) (Hickson et al., 2004); Chk2 Inhibitor II (10 μM; Calbiochem) (Arienti et al., 2005); Gö6976 (1 μM; Calbiochem) (Kohn et al., 2003). Unless stated otherwise, embryos were exposed to the inhibitors for 6 hr, transferred to fresh egg water, rinsed five times for 5 min, and labeled with AO. For experiments with Tg(rag2:EGFP-bcl-2) larvae, larvae were incubated in the inhibitor solution at 4 dpf, irradiated at 5 dpf, rinsed at 6 dpf, incubated in fresh inhibitor for an additional 72 hr, and mounted live at 9 dpf for fluorescence microscopic analysis of EGFP expression.

HeLa cells = experiment: Cell viability assay (CellTiter-Glo) after IR; assay type: cell-based, human; settings: 10 Gy, 72 hpIR
Method: For the cell viability assay, Tg(BCL2)^− and Tg(BCL2)^+ H218 cells were seeded into black 96-well plates (BD Bioscience) at a density of 1000 cells per well on day 1. 24-well sets were treated with DMSO or Gö6976 (1 μM), and plates were exposed to 0 or 10 Gy IR on day 2. After 72 hr, cellular viability was measured with the CellTiter-Glo Luminescent Cell Viability Assay kit (Promega) according to the manufacturer's instructions. Cellular viability for each well was calculated as a percentage of the mean viability of DMSO-treated, non-irradiated cells. The mean cellular viability and SEM were calculated and plotted with GraphPad Prism version 3 (GraphPad Software, San Diego Calif., USA). Each viability experiment was performed twice.

caspase-2 = experiment: Western blot of caspase-2 cleavage in human cancer cells; assay type: cell-based
Method: (§1) Protein extract (5-60 μg) was added to 4× gel loading buffer and 10× denaturing solution (Invitrogen) in appropriate proportions, and samples were incubated at 70° C. for 10 min. Samples were run at 200V for 1 hr on a 4-12% Bis-tris gradient gel (Invitrogen). After electrophoresis, samples were transferred for 1.5 hr (350 mA) to a Nitrocellulose membrane (Millipore) using a submerged transfer apparatus (Bio-Rad). Membranes were then blocked with 5% milk in Tris-buffered saline with 0.1% tween (TBST) and probed overnight at 4° C. with the following antibodies: anti-zebrafish Chk1 (diluted 1:200), anti-zebrafish Chk2 (1:200), anti-P-Cdc2 (1:1000), anti-actin (1:2000), anti-human ATR (1:500) and Stressgen anti-human-caspase-3 (1:500) for zebrafish immunoblots; and anti-caspase-2 (1:200), Upstate anti-caspase-3 (1:500), anti-P-ATM (1:500), anti-ATM (1:500), Santa Cruz anti-human Chk1 (1:1000), Santa Cruz anti-human Chk2 (1:1000), anti-P-Chk1 (1:500), anti-P-Chk2 (1:500), anti-P-H2A.X (1:2000), anti-P-cdc25C (1:1000), anti-P-HSP27 (1:1000), anti-HSP27 (1:1000), anti-P-Cdc2 (1:1000), anti-p53 (1:1000) and anti-GAPDH (1:5000) for immunoblots of human tumor cell lysates. Detailed references for all primary antibodies can be found in the ‘Antibodies’ section elsewhere herein.

ATM = experiment: Western blot of ATM activity (Chk2 phosphorylation at Thr68) in HeLa cells; assay type: cell-based, human; settings: 10 Gy IR+Gö6976 1 μM
Method: as §1

ATR = experiment: Western blot of ATR activity (Chk1 phosphorylation at Ser317) in HeLa cells; assay type: cell-based, human; settings: 10 Gy IR+Gö6976 1 μM
Method: as §1

MK-2 = MK-2 (Homo sapiens, UniProt P49137); experiment: Western blot of MK-2 activity (Hsp-27 Ser82 phosphorylation) in irradiated HeLa cells; assay type: cell-based; set-up: endogenous in cells; host or cells: HeLa
MK-2, sequence (P49137 whole entry): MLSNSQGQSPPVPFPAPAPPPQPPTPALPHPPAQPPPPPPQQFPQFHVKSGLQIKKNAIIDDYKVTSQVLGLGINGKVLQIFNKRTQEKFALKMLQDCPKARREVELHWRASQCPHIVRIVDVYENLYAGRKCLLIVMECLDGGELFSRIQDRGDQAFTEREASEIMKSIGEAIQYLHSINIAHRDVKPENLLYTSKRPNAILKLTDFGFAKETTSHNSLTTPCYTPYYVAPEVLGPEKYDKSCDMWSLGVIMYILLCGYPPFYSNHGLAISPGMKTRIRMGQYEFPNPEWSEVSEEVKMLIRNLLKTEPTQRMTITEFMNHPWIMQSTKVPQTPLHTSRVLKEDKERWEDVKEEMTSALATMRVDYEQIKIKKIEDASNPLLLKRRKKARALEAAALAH
Method: as §1

Cn1c2ccccc2c2c3c(c4c5ccccc5n(CCC#N)c4c21)CNC3=O [Gö6976]
long-term development of non-irradiated treated embryos (p53^+/+ embryos; p53+/+): developed into normal adults without overt signs of spontaneous tumorigenesis or other pathologies
toxicity of the dose used (AO reactivity of non-irradiated embryos) (p53^+/+ embryos; Gö6976 1 μM, KU55933 10 μM, Chk2 Inhibitor II 10 μM): non-toxic
radiosensitizing effect (cell killing) (HeLa cells; Gö6976 1 μM): ~50%
radiosensitization of HeLa cells (HeLa cells; regardless of BCL2 transgene): ~2 fold
caspase-2 activation (caspase-2; HeLa, 2 Gy, Gö6976 500 nM for 24 hbIR): synergistic activation of caspase-2 was observed
caspase-2 cleavage (caspase-2; HeLa, 2 or 3.2 Gy, Gö6976 1 μM applied 1 hbIR): no detectable cleavage
caspase-2 activation (caspase-2; HeLa, 3.2 Gy, Gö6976 1 μM applied 6 hbIR): as efficiently as the standard 10 Gy protocol
caspase-2 cleavage (caspase-2; HeLa, 10 Gy, 24 hpIR, Gö6976 1 μM applied 1 hbIR): readily apparent; also recorded: strong caspase-2 cleavage
caspase-2 cleavage (caspase-2; TP53+/+ HCT116 cells, IR+Gö6976): inability to cleave caspase-2
caspase-2 cleavage versus single- or no-treatment controls (caspase-2; TP53 null or mutant lines (TP53-/- HCT116, SAOS2, MDA-MB-435, LN-428), 10 Gy IR+Gö6976): increases in caspase-2 cleavage
phosphorylated Chk2 at Thr68 (readout for ATM activity) (ATM): synergistic increases
phosphorylated Chk1 at Ser317 (readout for ATR activity) (ATR): synergistic increases
MK-2 activity (MK-2; Gö6976 1 μM): an increase in MK-2 activity
HSP-27 phosphorylation at serine 82 (MK-2 site) (MK-2; Gö6976, increasing concentrations, 10 Gy, 24 hpIR): did not block HSP-27 phosphorylation at serine 82
